Data published in patent US7030113B2, “Aminobenzimidazoles as selective melanin concentrating hormone receptor antagonists for the treatment of obesity and related disorders” (Schering Corporation, priority 2003, dated 2006).
pKi: −log10 of the molar value.

Biological target: T1, MCH receptor (Homo sapiens, UniProt Q99705)
T1 construct: expressed in transfected cells; host or cells: CHO cells
Assay: MCH Receptor Binding Assay
Conditions: membranes from CHO cells expressing the MCH receptor, [125I]-MCH, SPA; read-out: Activity Class (Ki)
Experimental: MCH Receptor Binding Assay:
Membranes from CHO cells expressing the MCH receptor were prepared by lysing cells with 5 mM HEPES for 15 min at 4C. Cell lysates were centrifuged ([…], 15 min) and the pellet was resuspended in 5 mM HEPES. For each 96-well plate (Microlite, Dynex Technologies), 1 mg of cell membranes were incubated with 10 mg of wheat germ agglutinin SPA beads (Amersham) for 5 min at 4 C in a volume of 10 ml of binding buffer (25 mM HEPES, 10 mM MGCl2, 10 mM NaCl, 5 mM MnCl2, 0.1% BSA). The membrane/bead mixture was centrifuged (1500×g, 3.5 min), the supernatant was aspirated, and the pellet was resuspended in 10 ml binding buffer. The centrifugation, aspiration and resuspension were then repeated. The membrane/bead mixture (100 μl) was then added to 96-well plates containing 50 μl of 500 pM [^125I]-MCH (NEN) and […] of the appropriate concentration of compound (4× the desired final concentration). Nonspecific binding was determined by including 1 μM MCH in the binding reaction. The binding reaction was incubated at room temperature for 2 h. Plates were then analyzed in a TOPCOUNT microplate scintillation counter (Packard). Data was analyzed and Ki values were determined using GraphPad Prism.

T1 sequence (Q99705 whole entry): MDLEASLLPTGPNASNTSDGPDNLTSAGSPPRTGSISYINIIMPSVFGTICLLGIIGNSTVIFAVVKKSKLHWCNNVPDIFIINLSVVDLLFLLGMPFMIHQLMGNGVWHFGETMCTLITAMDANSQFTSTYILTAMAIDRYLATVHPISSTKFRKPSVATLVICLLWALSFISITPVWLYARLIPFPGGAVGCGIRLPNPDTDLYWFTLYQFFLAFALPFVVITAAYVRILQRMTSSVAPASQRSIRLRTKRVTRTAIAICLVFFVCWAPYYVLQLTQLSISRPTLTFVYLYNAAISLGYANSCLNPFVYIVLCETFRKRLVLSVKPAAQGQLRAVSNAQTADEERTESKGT

Row | SMILES | pKi
1 | CN1CCN(CCCN(c2nc3cc(Cl)c(F)cc3[nH]2)[C@@H]2CC[C@]3(c4cccc(C#N)c4)C[C@@H]3C2)CC1 [Example 8c] | > 8.00
2 | CN1CCN(CCCN(c2nc3cc(Cl)c(Cl)cc3[nH]2)[C@@H]2CC[C@]3(c4cccc(C=O)c4)C[C@@H]3C2)CC1 [Example 9a] | 7.52 to 8.00
3 | CN1CCN(CCCN(c2nc3cc(F)c(F)cc3[nH]2)[C@@H]2CC[C@]3(c4cccc(C=O)c4)C[C@@H]3C2)CC1 [Example 9b] | 7.52 to 8.00
4 | CN(C)Cc1cccc([C@]23CC[C@@H](N(CCCN4CCN(C)CC4)c4nc5cc(Cl)c(Cl)cc5[nH]4)C[C@H]2C3)c1 [Example 10a] | > 8.00
5 | CN1CCN(CCCN(c2nc3cc(Cl)c(Cl)cc3[nH]2)[C@@H]2CC[C@]3(c4cccc(CN5CCOCC5)c4)C[C@@H]3C2)CC1 [Example 10b] | 7.52 to 8.00
6 | CN1CCN(CCCN(c2nc3cc(F)c(F)cc3[nH]2)[C@@H]2CC[C@]3(c4cccc(CN5CCCC5)c4)C[C@@H]3C2)CC1 [Example 10c] | 7.52 to 8.00
7 | CN(C)Cc1cccc([C@]23CC[C@@H](N(CCCN4CCN(C)CC4)c4nc5cc(F)c(F)cc5[nH]4)C[C@H]2C3)c1 [Example 10d] | < 7.00
8 | CN1CCN(CCCN(c2nc3cc(F)c(F)cc3[nH]2)[C@@H]2CC[C@]3(c4cccc(CN5CCOCC5)c4)C[C@@H]3C2)CC1 [Example 10e] | 7.52 to 8.00
9 | CN1CCN(CCCN(c2nc3cc(F)c(F)cc3[nH]2)[C@@H]2CC[C@]3(c4cccc(CN5CC[C@@H](O)C5)c4)CC3C2)CC1 (some centres unmarked) [Example 10f] | < 7.00
10 | CS(=O)(=O)N1CCC(CN(c2nc3cc(Cl)c(Cl)cc3[nH]2)[C@@H]2CC[C@]3(c4cccc(C#N)c4)C[C@@H]3C2)CC1 [Example 16a] | > 8.00
11 | CS(=O)(=O)N1CCC(CN(c2nc3cc(F)c(F)cc3[nH]2)[C@@H]2CC[C@]3(c4cccc(C#N)c4)C[C@@H]3C2)CC1 [Example 16b] | 7.52 to 8.00
12 | CS(=O)(=O)N1CCC(CN(c2nc3cc(F)c(Cl)cc3[nH]2)[C@@H]2CC[C@]3(c4cccc(C#N)c4)C[C@@H]3C2)CC1 [Example 16c] | > 8.00
13 | CC(C)(C)OC(=O)N1CCC(CN(c2nc3cc(Cl)c(Cl)cc3[nH]2)[C@@H]2CC[C@]3(c4cccc(C#N)c4)CC3C2)CC1 (some centres unmarked) [Example 21] | < 7.00
14 | N#Cc1cccc([C@]23CC[C@@H](N(CC4CCNCC4)c4nc5cc(Cl)c(Cl)cc5[nH]4)CC2C3)c1 (some centres unmarked) [Example 22] | > 8.00
15 | CO/N=C/c1cccc([C@]23CC[C@@H](N(CCCN4CCN(C)CC4)c4nc5cc(F)c(F)cc5[nH]4)CC2C3)c1 (some centres unmarked) [Example 24] | 7.52 to 8.00
16 | CN1CCN(CCCN(c2nc3cc(F)c(Cl)cc3n2C)[C@@H]2CC[C@]3(c4cccc(C#N)c4)CC23)CC1 (some centres unmarked) [Example 36] | < 7.00

Further lines, results first:

Row | pKi | SMILES
17 | > 8.00 | CN1CCN(CCCN(c2nc3cc(Cl)c(Cl)cc3[nH]2)[C@@H]2CC[C@]3(c4cccc(C#N)c4)C[C@H]23)CC1 [Example 30a]
18 | > 8.00 | CN1CCN(CCCN(c2nc3cc(Cl)c(F)cc3[nH]2)[C@@H]2CC[C@]3(c4cccc(C#N)c4)C[C@H]23)CC1 [Example 30b]
19 | 7.52 to 8.00 | CN1CCN(CCCN(c2nc3cc(F)c(F)cc3[nH]2)[C@@H]2CC[C@]3(c4cccc(C#N)c4)C[C@H]23)CC1 [Example 30c]
20 | 7.52 to 8.00 | CN1CCN(CCCN(c2nc3cc(F)c(Cl)cc3[nH]2)[C@@H]2CC[C@]3(c4cccc(Br)c4)CC23)CC1 (some centres unmarked) [Example 30d]
21 | > 8.00 | CN1CCN(CCCN(c2nc3cc(F)c(C(F)(F)F)cc3[nH]2)[C@@H]2CC[C@]3(c4ccc(C#N)cc4)CC23)CC1 (some centres unmarked) [Example 35a]
22 | 7.52 to 8.00 | CN1CCN(CCCN(c2nc3cc(Cl)c(Cl)cc3[nH]2)[C@@H]2CC[C@]3(c4ccc(C#N)cc4)C[C@H]23)CC1 [Example 35b]
23 | > 8.00 | CN1CCN(CCCN(c2nc3cc(Cl)c(F)cc3[nH]2)[C@@H]2CC[C@]3(c4ccc(C#N)cc4)C[C@H]23)CC1 [Example 35c]
